Data published in ChEMBL document CHEMBL3046004, “Esterase-mediated resistance to pyrethroids in field populations of Helicoverpa armigera (Lepidoptera: Noctuidae) from Central Africa” (2009).

Experiments:
Type in all cases: functional
[1] = test system: Helicoverpa armigera; test: Resistance factor, ratio of LD50 for fourth-instar larval stage of pyrethroid-resistance Helicoverpa armigera laboratory strain GS-RR06 to LD50 for fourth-instar larval stage of pyrethroid-susceptible Helicoverpa armigera laboratory strain BK-77
[2] = test system: Helicoverpa armigera; test: Resistance factor, ratio of LD50 for fourth-instar larval stage of Helicoverpa armigera field strain Gaschiga isolated from tomato plant to LD50 for fourth-instar larval stage of pyrethroid-susceptible Helicoverpa armigera laboratory strain BK-77
[3] = test system: Helicoverpa armigera; test: Resistance factor, ratio of LD50 for fourth-instar larval stage of Helicoverpa armigera field strain Tchollire to LD50 for fourth-instar larval stage of pyrethroid-susceptible Helicoverpa armigera laboratory strain BK-77
[4] = test system: Helicoverpa armigera; test: Resistance factor, ratio of LD50 for fourth-instar larval stage of Helicoverpa armigera field strain Pitoa isolated from tomato plant to LD50 for fourth-instar larval stage of pyrethroid-susceptible Helicoverpa armigera laboratory strain BK-77
[5] = test system: Helicoverpa armigera; test: Insecticidal activity against fourth-instar larval stage of pyrethroid-susceptible Helicoverpa armigera laboratory strain BK-77 assessed as mortality applied topically onto thorax measured after 48 hr
[6] = test system: Helicoverpa armigera; test: Resistance factor, ratio of LD50 for fourth-instar larval stage of Helicoverpa armigera field strain Ngong to LD50 for fourth-instar larval stage of pyrethroid-susceptible Helicoverpa armigera laboratory strain BK-77
[7] = test system: Helicoverpa armigera; test: Resistance factor, ratio of LD50 for fourth-instar larval stage of Helicoverpa armigera field strain Pitoa isolated from maize plant to LD50 for fourth-instar larval stage of pyrethroid-susceptible Helicoverpa armigera laboratory strain BK-77
[8] = test system: Helicoverpa armigera; test: Insecticidal activity against fourth-instar larval stage of Helicoverpa armigera field strain Ngong isolated from cotton plant assessed as mortality applied topically onto thorax measured after 48 hr
[9] = test system: Helicoverpa armigera; test: Insecticidal activity against fourth-instar larval stage of Helicoverpa armigera field strain Tchollire isolated from cotton plant assessed as mortality applied topically onto thorax measured after 48 hr
[10] = test system: Helicoverpa armigera; test: Insecticidal activity against fourth-instar larval stage of pyrethroid-resistance Helicoverpa armigera laboratory strain GS-RR06 assessed as mortality applied topically onto thorax measured after 48 hr
[11] = test system: Helicoverpa armigera; test: Insecticidal activity against fourth-instar larval stage of Helicoverpa armigera field strain Gaschiga isolated from tomato plant assessed as mortality applied topically onto thorax measured after 48 hr
[12] = test system: Helicoverpa armigera; test: Insecticidal activity against fourth-instar larval stage of Helicoverpa armigera field strain Pitoa isolated from maize plant assessed as mortality applied topically onto thorax measured after 48 hr
[13] = test system: Helicoverpa armigera; test: Insecticidal activity against fourth-instar larval stage of Helicoverpa armigera field strain Pitoa isolated from tomato plant assessed as mortality applied topically onto thorax measured after 48 hr

| SMILES | Ratio [1] | Ratio [2] | Ratio [3] | Ratio [4] | LD50 [5] [microgAi/g] | Ratio [6] | Ratio [7] | LD50 [8] [microgAi/g] | LD50 [9] [microgAi/g] | LD50 [10] [microgAi/g] | LD50 [11] [microgAi/g] | LD50 [12] [microgAi/g] | LD50 [13] [microgAi/g] |
| --- | --- | --- | --- | --- | --- | --- | --- | --- | --- | --- | --- | --- | --- |
| CCOc1ccc(C(C)(C)COCc2cccc(Oc3ccccc3)c2)cc1 [ETOFENPROX] | 2 | 4 | 3 | 10 | 55.5 | 2 | 5 | 136.6 | 152.2 | 135.7 | 229.3 | 285.3 | 531.4 |
| CC1(C)[C@H](C(=O)O[C@H](C#N)c2cccc(Oc3ccccc3)c2)[C@@H]1C=C(Br)Br [DELTAMETHRIN] | 2972 | 316 | 60 | 756 | 0.05 | 134 | 590 | 6.7 | 3 | 148.6 | 15.8 | 29.5 | 37.8 |
| COC(=O)N(C(=O)N1CO[C@@]2(C(=O)OC)Cc3cc(Cl)ccc3C2=N1)c1ccc(OC(F)(F)F)cc1 [INDOXACARB] | 1 | 0.4 | – | 2 | 0.7 | 1.4 | 1.1 | 0.9 | – | 0.7 | 0.3 | 0.7 | 1.3 |
| O=S1OCC2C(CO1)C1(Cl)C(Cl)=C(Cl)C2(Cl)C1(Cl)Cl (stereo not drawn) [ENDOSULFAN] | 0.7 | 0.7 | – | 1 | 37.6 | 0.1 | 1 | 34 | – | 27.5 | 25.9 | 37.9 | 36.2 |
